Experimental data as given in patent US5726159A, “Antithrombotic agents” (Eli Lilly and Company, priority 1995, dated 1998).
Structures can show the parent of a compound that is named as a salt.

What was measured:
Assay type in all cases: biochemical
Conditions in all cases: concentration required to double the clotting time
[1] = test system: Human plasma; assay: Human plasma anticoagulation, prothrombin time (PT)
Method: (§1) Dog plasma and rat plasma is obtained from conscious mixed-breed hounds (either sex, Hazelton-LRE, Kalamazoo, Mich., U.S.A.) or from anesthetized male Sprague-Dawley rats (Harlan Sprague-Dawley, Inc., Indianapolis, Ind., U.S.A.) by venipuncture into 3.8 percent citrate. Fibrinogen is prepared from in-date ACD human blood as the fraction I-2 according to previous procedures and specifications. […] Human fibrinogen is also purchased as 98 percent pure/plasmin free from American Diagnostica, Greenwich, Conn. Coagulation reagents ACTIN, Thromboplastin, and Human plasma are from Baxter Healthcare Corp., Dade Division, Miami, Fla. Bovine thrombin from Parke-Davis ([…], Mich.) is used for coagulation assays in plasma.
(§2) Coagulation assay procedures are as previously described. […] A CoAScreener coagulation instrument (American LABor, Inc.) is used for all coagulation assay measurements. The prothrombin time (PT) is measured by adding 0.05 mL saline and 0.05 mL Thromboplastin-C reagent to 0.05 mL test plasma. The activated partial thromboplastin time (APTT) is measured by incubation of 0.05 mL test plasma with 0.05 mL Actin reagent for 120 seconds followed by 0.05 mL CaCl2 (0.02M). The thrombin time (TT) is measured by adding 0.05 mL saline and 0.05 mL thrombin (10 NIH units/mL) to 0.05 mL test plasma. The compounds of Formula I are added to human or animal plasma over a wide range of concentrations to determine prolongation effects on the APTT, PT, and TT assays. Linear extrapolations are performed to estimate the concentrations required to double the clotting time for each assay.

[2] = test system: Human plasma; assay: Human plasma anticoagulation, activated partial thromboplastin time (APTT)
Method: as §1, §2

[3] = test system: Human plasma; assay: Human plasma anticoagulation, thrombin time (TT)
Method: as §1, §2

SMILES	2x Clotting time PT [1]	2x Clotting time APTT [2]	2x Clotting time TT [3]
N=C(N)N1CCC(CNC(=O)[C@@H]2CCCN2C(=O)[C@@H](CC2CCCCC2)NCC(=O)O)CC1 [Example 56, HO2 CCH2 -D-Cha-Pro-4-NHCH2 -1-amidinopiperidine.HCl]	200 ng/mL	160 ng/mL	5 ng/mL
N=C(N)N1CCC(CCNC(=O)[C@@H]2CCCN2C(=O)[C@@H](CC2CCCCC2)NCC(=O)O)CC1 [Example 57, HO2 CCH2 -D-Cha-Pro-4-NHCH2 CH2 -1-amidinopiperidine.HCl]	340 ng/mL	360 ng/mL	14 ng/mL
O=C(O)CN[C@H](CC1CCCCC1)C(=O)N1CCC[C@H]1C(=O)NCC1=CCNCC1 [Example 58, HO2 CCH2 -D-Cha-Pro-4-NHCH2 -3,4-dehydro-piperidine.HCl]	11,400 ng/mL	14,300 ng/mL	710 ng/mL
O=C(O)CN[C@H](CC1CCCCC1)C(=O)N1CCC[C@H]1C(=O)NCCC1=CCNCC1 [Example 59, HO2 CCH2 -D-Cha-Pro-4-NHCH2 CH2 -3,4-dehydro-piperidine.HCl]	7,000 ng/mL	5,500 ng/mL	420 ng/mL
O=C(O)CN[C@H](CC1CCCCC1)C(=O)N1CCC[C@H]1C(=O)NCCCC1=CCNCC1 [Example 60, HO2 CCH2 -D-Cha-Pro-4-NHCH2 CH2 CH2 -3,4-dehydro-piperidine.HCl]	77,700 ng/mL	22,200 ng/mL	3,200 ng/mL
Nc1ccc(CNC(=O)[C@@H]2CCCN2C(=O)[C@@H](CC2CCCCC2)NCC(=O)O)c(F)c1 [Example 64, HO2 CCH2 -D-Cha-Pro-4-NHCH2 -3-F-C6 H3 NH2.HCl]	650 ng/mL	900 ng/mL	23 ng/mL
N=C(N)c1ccc(CNC(=O)[C@@H]2CCCN2C(=O)[C@@H](CC2CCCCC2)NCC(=O)O)nc1 [Example 66, HO2 CCH2 -D-Cha-Pro-2-NHCH2 -5-amidinopyridine.HCl]	270 ng/mL	180 ng/mL	7.9 ng/mL
N=C(N)C1CCC(CNC(=O)[C@@H]2CCCN2C(=O)[C@@H](CC2CCCCC2)NCC(=O)O)NC1 (stereo partly drawn) [Example 67, HO2 CCH2 -D-Cha-Pro-2-NHCH2 -5-amidinopiperidine.HCl]	1,300 ng/mL	1,800 ng/mL	34. ng/mL
N=C(N)C1=CNC(CNC(=O)[C@@H]2CCCN2C(=O)[C@@H](CC2CCCCC2)NCC(=O)O)CC1 (stereo partly drawn) [Example 68, HO2 CCH2 -D-Cha-Pro-2-NHCH2 -5-amidino-5,6-dehydro-piperidine.HCl]	190 ng/mL	49 ng/mL	4. ng/mL
N=C(N)c1ccc(CNC(=O)[C@@H]2CCCN2C(=O)[C@@H](CC2CCCCC2)NCC(=O)O)nn1 [Example 69, HO2 CCH2 -D-Cha-Pro-3-NHCH2 -6-amidinopyridazine.HCl]	220 ng/mL	110 ng/mL	5. ng/mL
N=C(N)N1CC=C(CNC(=O)[C@@H]2CCCN2C(=O)[C@@H](CC2CCCCC2)NCC(=O)O)CC1 [Example 70, HO2 CCH2 -D-Cha-Pro-4-NHCH2 -1-amidino-3,4-dehydro-piperidine.HCl]	180 ng/mL	160 ng/mL	2 ng/mL
N=C(N)c1cc(F)c(CNC(=O)[C@@H]2CCCN2C(=O)[C@@H](CC2CCCCC2)NCC(=O)O)c(F)c1 [Example 72, HO2 CCH2 -D-Cha-Pro-4-NHCH2 -3,5-F2 -benzamidine.HCl]	160 ng/mL	160 ng/mL	1 ng/mL
Nc1cc(CNC(=O)[C@@H]2CCCN2C(=O)[C@@H](CC2CCCCC2)NCC(=O)O)ccn1 [Example 73, HO2 CCH2 -D-Cha-Pro-4-NHCH2 -2-aminopyridine.HCl]	330 ng/mL	340 ng/mL	21 ng/mL
Nc1ccc(CNC(=O)[C@@H]2CCCN2C(=O)[C@@H](CC2CCCCC2)NCC(=O)O)cn1 [Example 74, HO2 CCH2 -D-Cha-Pro-5-NHCH2 -2-aminopyridine.HCl]	350 ng/mL	420 ng/mL	20 ng/mL
Nc1cc(CCNC(=O)[C@@H]2CCCN2C(=O)[C@@H](CC2CCCCC2)NCC(=O)O)ccn1 [Example 76, HO2 CCH2 -D-Cha-Pro-4-NHCH2 CH2 -2-aminopyridine.HCl]	560 ng/mL	490 ng/mL	29 ng/mL
Nc1ccc(CNC(=O)[C@@H]2CCCN2C(=O)[C@@H](CC2CCCCC2)NCC(=O)O)cc1F [Example 77, HO2 CCH2 -D-Cha-Pro-4-NHCH2 -2-F-aniline.HCl]	890 ng/mL	1,600 ng/mL	53 ng/mL
NCc1ccc(CNC(=O)[C@@H]2CCCN2C(=O)[C@@H](CC2CCCCC2)NCC(=O)O)cc1 [Example 78, HO2 CCH2 -D-Cha-Pro-4-NHCH2 C6 H4 CH2 NH2.HCl]	760 ng/mL	430 ng/mL	46 ng/mL
NCC1CCC(CNC(=O)[C@@H]2CCCN2C(=O)[C@@H](CC2CCCCC2)NCC(=O)O)CC1 (stereo partly drawn) [Example 79, HO2 CCH2 -D-Cha-Pro-4-NHCH2 C6 H10 CH2 NH2.HCl]	2,400 ng/mL	1,700 ng/mL	140 ng/mL
CCS(=O)(=O)N[C@H](CC1CCCCC1)C(=O)N1CCC[C@H]1C(=O)NCc1ccc(CN)cc1 [Example 81, EtSO2 -D-Cha-Pro-4-NHCH2 C6 H4 CH2 NH2.HCl]	2,700 ng/mL	1,500 ng/mL	110 ng/mL
CCS(=O)(=O)N[C@H](CC1CCCCC1)C(=O)N1CCC[C@H]1C(=O)NCc1ccc(N)cc1F [Example 82, EtSO2 -D-Cha-Pro-4-NHCH2 -3-F-C6 H3 NH2.HCl]	3,000 ng/mL	3,800 ng/mL	130 ng/mL
CCS(=O)(=O)N[C@H](CC1CCCCC1)C(=O)N1CCC[C@H]1C(=O)NCc1ccnc(N)c1 [Example 83, EtSO2 -D-Cha-Pro-4-NHCH2 -2-aminopyridine.HCl]	1,300 ng/mL	1,000 ng/mL	91 ng/mL
CCS(=O)(=O)N[C@H](CC1CCCCC1)C(=O)N1CCC[C@H]1C(=O)NCc1ccc(N)nc1 [Example 84, EtSO2 -D-Cha-Pro-5-NHCH2 -2-aminopyridine.HCl]	1,900 ng/mL	1,500 ng/mL	110 ng/mL
N=C(N)c1ccc(CNC(=O)[C@@H]2CCCN2C(=O)[C@@H](CC2CCCCC2)NCCCC(=O)O)cc1 [Example 85, HOOCCH2 CH2 CH2 -D-Cha-Pro-p-NHCH2 C6 H4 C(NH)NH2.HCl]	197 ng/mL	100 ng/mL	4.9 ng/mL
N=C(N)c1ccc(CNC(=O)[C@@H]2CCCN2C(=O)[C@H](NCC(=O)O)C2CCCCC2)cc1 [Example 86, HOOCCH2 -D-Chg-Pro-p-NHCH2 C6 H4 C(NH)NH2.HCl]	180 ng/mL	81 ng/mL	4 ng/mL
N=C(N)c1ccc(CNC(=O)[C@@H]2CCCN2C(=O)[C@@H](CCC2CCCCC2)NCC(=O)O)cc1 [Example 88, HOOCCH2 -D-hCha-Pro-p-NHCH2 C6 H4 C(NH)NH2.HCl]	200 ng/mL	100 ng/mL	4 ng/mL
N=C(N)c1ccc(CNC(=O)CN(CCc2ccccc2)C(=O)CNCC(=O)O)cc1 [Example 89, HOOCCH2 -Gly-N-C6 H5 CH2 CH2 Gly-p-NHCH2 C6 H4 C(NH)NH2.HCl]	37,000 ng/mL	51,000 ng/mL	570 ng/mL
CCC(CC)C(=O)N[C@@H](CCC(=O)O)C(=O)N1CCC[C@H]1C(=O)NCc1ccc(C(=N)N)cc1 [Example 90, (C2 H5)2 CHCO-Glu-Pro-p-NHCH2 C6 H4 C(NH)NH2.HCl]	14,600 ng/mL	14,500 ng/mL	330 ng/mL
CCC(CC)C(=O)N[C@@H](CCS(C)(=O)=O)C(=O)N1CCC[C@H]1C(=O)NCc1ccc(C(=N)N)cc1 [Example 91, (C2 H5)2 CHCO-Met(O2)-Pro-p-NHCH2 C6 H4 C(NH)NH2.HCl]	3,500 ng/mL	3,000 ng/mL	63 ng/mL
CS(=O)(=O)CC(=O)N[C@H](CC1CCCCC1)C(=O)N1CCC[C@H]1C(=O)NCc1ccc(C(=N)N)cc1 [Example 92, MeSO2 CH2 CO-D-Cha-Pro-p-NHCH2 C6 H4 C(NH)NH2.HCl]	340 ng/mL	210 ng/mL	8.9 ng/mL
